Measurements reported in patent US8758816B2, “Compositions comprising azelastine and methods of use thereof” (priority 2004, dated 2014).

System: patients with seasonal allergic rhinitis (SAR)
Assay: MP 428 two-week randomized double-blind study: Total Nasal Symptom Score (TNSS), change from baseline
Assay type: in vivo, human
Parameters: key to Change from Baseline in AM TNSS, Mean / Change from Baseline in AM TNSS, LS Mean / Change from Baseline in AM TNSS, Median: TNSS sum of 4 symptoms each 0-3 (0=none, 3=severe); change from baseline
Protocol: A two-week, randomized, double-blind study, which evaluated the effects of the co-administration of ASTELIN® (azelastine hydrochloride (HCl)) and FLONASE® (fluticasone propionate) compared to either product alone in patients with seasonal allergic rhinitis (SAR) was conducted during the 2006 Texas mountain cedar season. After a 5-day placebo lead-in period, 151 patients with moderate-to-severe allergic rhinitis symptoms were randomized to either: (1) (49 total patients) ASTELIN® (azelastine hydrochloride (HCl)) plus placebo saline nasal spray 2 sprays per nostril, 15 minutes apart, twice daily (AM & PM); (2) (50 total patients) FLONASE® (fluticasone propionate) plus placebo saline nasal spray, 2 sprays per nostril, 15 minutes apart, once daily (AM) and two sessions of placebo saline nasal spray, 2 sprays per nostril, 15 minutes apart (PM); or (3) (52 total patients) the co-administration of ASTELIN® (azelastine hydrochloride (HCl)) 2 sprays per nostril plus FLONASE® (fluticasone propionate) 2 sprays per nostril (AM), 15 minutes apart, and ASTELIN® (azelastine hydrochloride (HCl)) 2 sprays per nostril plus placebo saline nasal spray, 15 minutes apart, (PM) for a 2-week double-blind treatment period.
The primary efficacy variable was the change from baseline in the Total Nasal Symptom Score (TNSS), which comprised sneezing, itchy nose, runny nose, and nasal congestion (individual symptoms scores were assigned a value between 0 and 3, where 0=no symptoms and 3=severe symptoms). This study was not statistically designed to assess the differences between ASTELIN® and FLONASE®.

[1] = Day 2, Intent-to-Treat Population
[2] = Day 3, Intent-to-Treat Population
[3] = Day 4, Intent-to-Treat Population
[4] = Day 5, Intent-to-Treat Population

CCC(=O)O[C@]1(C(=O)SCF)[C@H](C)C[C@H]2[C@@H]3C[C@H](F)C4=CC(=O)C=C[C@]4(C)[C@@]3(F)[C@@H](O)C[C@@]21C [Fluticasone, fluticasone propionate]
Primary Reason for Discontinuation From Study: Treatment Failure (All Randomized Patients): 1 (2.0) N (%) | Change from Baseline in AM TNSS, LS Mean [1]: −1.58 | Change from Baseline in AM TNSS, Mean [1]: −1.65 | Change from Baseline in AM TNSS, Median [1]: −1.00 | Change from Baseline in AM and PM Combined TNSS, Mean [1]: −3.24 | Change from Baseline in AM and PM Combined TNSS, Median [1]: −2.00 | Change from Baseline in PM TNSS, LS Mean [1]: −1.54 | Change from Baseline in PM TNSS, Mean [1]: −1.59 | Change from Baseline in PM TNSS, Median [1]: −1.00 | Percent Change from Baseline in AM TNSS, LS Mean [1]: −16.43% | Percent Change from Baseline in AM TNSS, Mean [1]: −17.21% | Percent Change from Baseline in AM TNSS, Median [1]: −11.11% | Percent Change from Baseline in AM and PM Combined TNSS, LS Mean [1]: −16.35% | Percent Change from Baseline in AM and PM Combined TNSS, Mean [1]: −16.91% | Percent Change from Baseline in AM and PM Combined TNSS, Median [1]: −12.46% | Percent Change from Baseline in PM TNSS, LS Mean [1]: −16.05% | Percent Change from Baseline in PM TNSS, Mean [1]: −16.52% | Percent Change from Baseline in PM TNSS, Median [1]: −11.11% | Change from Baseline in AM and PM Combined TNSS, LS Mean (Day 2, Intent-to-Treat Population, ANCOVA model): −3.12 | Change from Baseline in AM and PM Combined TNSS, LS Mean (Day 2, Per-Protocol Population): −3.10 | Change from Baseline in AM and PM Combined TNSS, Mean (Day 2, Per-Protocol Population): −3.27 | Change from Baseline in AM and PM Combined TNSS, Median (Day 2, Per-Protocol Population): −2.00 | Percent Change from Baseline in AM and PM Combined TNSS, LS Mean (Day 2, Per-Protocol Population): −16.38% | Percent Change from Baseline in AM and PM Combined TNSS, Mean (Day 2, Per-Protocol Population): −17.11% | Percent Change from Baseline in AM and PM Combined TNSS, Median (Day 2, Per-Protocol Population): −12.46% | Change from Baseline in AM TNSS, LS Mean [2]: −2.01 | Change from Baseline in AM TNSS, Mean [2]: −2.04 | Change from Baseline in AM TNSS, Median [2]: −1.50 | Change from Baseline in AM and PM Combined TNSS, Mean [2]: −4.12 | Change from Baseline in AM and PM Combined TNSS, Median [2]: −3.20 | Change from Baseline in PM TNSS, LS Mean [2]: −2.08 | Change from Baseline in PM TNSS, Mean [2]: −2.08 | Change from Baseline in PM TNSS, Median [2]: −1.80 | Percent Change from Baseline in AM TNSS, LS Mean [2]: −21.72% | Percent Change from Baseline in AM TNSS, Mean [2]: −22.09% | Percent Change from Baseline in AM TNSS, Median [2]: −14.29% | Percent Change from Baseline in AM and PM Combined TNSS, LS Mean [2]: −22.17% | Percent Change from Baseline in AM and PM Combined TNSS, Mean [2]: −22.26% | Percent Change from Baseline in AM and PM Combined TNSS, Median [2]: −16.67% | Percent Change from Baseline in PM TNSS, LS Mean [2]: −22.22% | Percent Change from Baseline in PM TNSS, Mean [2]: −22.28% | Percent Change from Baseline in PM TNSS, Median [2]: −20.00% | Change from Baseline in AM and PM Combined TNSS, LS Mean (Day 3, Intent-to-Treat Population, ANCOVA model): −4.09 | Change from Baseline in AM and PM Combined TNSS, LS Mean (Day 3, Per-Protocol Population): −4.18 | Change from Baseline in AM and PM Combined TNSS, Mean (Day 3, Per-Protocol Population): −4.25 | Change from Baseline in AM and PM Combined TNSS, Median (Day 3, Per-Protocol Population): −3.47 | Percent Change from Baseline in AM and PM Combined TNSS, LS Mean (Day 3, Per-Protocol Population): −22.68% | Percent Change from Baseline in AM and PM Combined TNSS, Mean (Day 3, Per-Protocol Population): −22.87% | Percent Change from Baseline in AM and PM Combined TNSS, Median (Day 3, Per-Protocol Population): −16.67% | Change from Baseline in AM TNSS, LS Mean [3]: −2.43 | Change from Baseline in AM TNSS, Mean [3]: −2.41 | Change from Baseline in AM TNSS, Median [3]: −2.67 | Change from Baseline in AM and PM Combined TNSS, Mean [3]: −4.53 | Change from Baseline in AM and PM Combined TNSS, Median [3]: −4.17 | Change from Baseline in PM TNSS, LS Mean [3]: −2.10 | Change from Baseline in PM TNSS, Mean [3]: −2.12 | Change from Baseline in PM TNSS, Median [3]: −1.80 | Percent Change from Baseline in AM TNSS, LS Mean [3]: −25.32% | Percent Change from Baseline in AM TNSS, Mean [3]: −25.07% | Percent Change from Baseline in AM TNSS, Median [3]: −27.27% | Percent Change from Baseline in AM and PM Combined TNSS, LS Mean [3]: −23.75% | Percent Change from Baseline in AM and PM Combined TNSS, Mean [3]: −23.67% | Percent Change from Baseline in AM and PM Combined TNSS, Median [3]: −23.60% | Percent Change from Baseline in PM TNSS, LS Mean [3]: −21.91% | Percent Change from Baseline in PM TNSS, Mean [3]: −22.22% | Percent Change from Baseline in PM TNSS, Median [3]: −20.00% | Change from Baseline in AM and PM Combined TNSS, LS Mean (Day 4, Intent-to-Treat Population, ANCOVA model): −4.53 | Change from Baseline in AM and PM Combined TNSS, LS Mean (Day 4, Per-Protocol Population): −4.61 | Change from Baseline in AM and PM Combined TNSS, Mean (Day 4, Per-Protocol Population): −4.63 | Change from Baseline in AM and PM Combined TNSS, Median (Day 4, Per-Protocol Population): −4.17 | Percent Change from Baseline in AM and PM Combined TNSS, LS Mean (Day 4, Per-Protocol Population): −24.10% | Percent Change from Baseline in AM and PM Combined TNSS, Mean (Day 4, Per-Protocol Population): −24.08% | Percent Change from Baseline in AM and PM Combined TNSS, Median (Day 4, Per-Protocol Population): −23.60% | Change from Baseline in AM TNSS, LS Mean [4]: −2.59 | Change from Baseline in AM TNSS, Mean [4]: −2.57 | Change from Baseline in AM TNSS, Median [4]: −2.00 | Change from Baseline in AM and PM Combined TNSS, Mean [4]: −5.16 | Change from Baseline in AM and PM Combined TNSS, Median [4]: −4.40 | Change from Baseline in PM TNSS, LS Mean [4]: −2.61 | Change from Baseline in PM TNSS, Mean [4]: −2.59 | Change from Baseline in PM TNSS, Median [4]: −2.00 | Percent Change from Baseline in AM TNSS, LS Mean [4]: −26.91% | Percent Change from Baseline in AM TNSS, Mean [4]: −26.62% | Percent Change from Baseline in AM TNSS, Median [4]: −19.23% | Percent Change from Baseline in AM and PM Combined TNSS, LS Mean [4]: −27.20%
